This passage reports IC50 results from patent US8273773B2 (priority 2008, dated 2012).

Structures are written as SMILES.
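Note: recombinant His-tagged enzyme from E. coli, radiolabeled nucleotide incorporation into acid-insoluble RNA read by scintillation after filtration, no-enzyme background subtracted, activity relative to positive control.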

The target in the assay is T1, HCV polymerase (NS5B570n-Con1) (Hepatitis C virus genotype 1b, UniProt Q9WMX2).
T1 construct: contains a 21 amino acid deletion at the C-terminus relative to the full-length HCV polymerase; 6-histidine (N); made in house; host or cells: E. coli strain BL21(DE) pLysS (pET17b)
The assay is described as follows: biochemical. Details: species or system HCV Con1 strain. The note with it: IC50 HCV NS5B RNA Polymerase Assay (values with asterisk), values with asterisk: cIRES RNA template, 3 nM NS5B570n-Con1.
One may read the IC50 as the midpoint of a concentration-inhibition curve. The compound `CCS(=O)(=O)Nc1ccc(/C=C/c2cc(-c3cc(F)c[nH]c3=O)cc(C(C)(C)C)c2OC)cc1` [I-228, Ethanesulfonic acid (4-{(E)-2-[3-tert-butyl-5-(5-fluoro-2-oxo-1,2-dihydro-pyridin-3-yl)-2-methoxy-phenyl]-vinyl}-phenyl)-amide] displayed an IC50 of 5 nM.

`COc1c(/C=C/c2ccc(NS(=O)(=O)CC(F)(F)F)cn2)cc(-c2cc(F)c[nH]c2=O)cc1C(C)(C)C` [I-229, 2,2,2-Trifluoro-ethanesulfonic acid (6-{(E)-2-[3-tert-butyl-5-(5-fluoro-2-oxo-1,2-dihydro-pyridin-3-yl)-2-methoxy-phenyl]-vinyl}-pyridin-3-yl)-amide]: half-maximal inhibition (IC50) required 2 nM.

For the compound `COc1c(/C=C/c2ccc(NS(=O)(=O)CCCN3CCCC3)cc2)cc(-c2cc(F)c[nH]c2=O)cc1C(C)(C)C` [I-230, 3-Pyrrolidin-1-yl-propane-1-sulfonic acid (4-{(E)-2-[3-tert-butyl-5-(5-fluoro-2-oxo-1,2-dihydro-pyridin-3-yl)-2-methoxy-phenyl]-vinyl}-phenyl)-amide], the midpoint of inhibition, the IC50, lay at 6 nM.

In the case of `COc1c(/C=C/c2ccc(NS(=O)(=O)CCCN3CCOCC3)cc2)cc(-c2cc(F)c[nH]c2=O)cc1C(C)(C)C` [I-231, 3-Morpholin-4-yl-propane-1-sulfonic acid (4-{(E)-2-[3-tert-butyl-5-(5-fluoro-2-oxo-1,2-dihydro-pyridin-3-yl)-2-methoxy-phenyl]-vinyl}-phenyl)-amide], the IC50 came to 4 nM.

Consider `COc1c(/C=C/c2ccc(NS(=O)(=O)CCN3CCCC3)cc2)cc(-c2cc(F)c[nH]c2=O)cc1C(C)(C)C` [I-232, 2-Pyrrolidin-1-yl-ethanesulfonic acid (4-{(E)-2-[3-tert-butyl-5-(5-fluoro-2-oxo-1,2-dihydro-pyridin-3-yl)-2-methoxy-phenyl]-vinyl}-phenyl)-amide], for which the IC50 stood at 1 nM.

The compound `COc1c(/C=C/c2ccc(NS(=O)(=O)CCN3CCOCC3)cc2)cc(-c2cc(F)c[nH]c2=O)cc1C(C)(C)C` [I-233] came in with an IC50 of 1 nM.

In turn, `COc1c(/C=C/c2ccc(NS(=O)(=O)CCCN3CCCC3)cc2)cc(-c2ccc[nH]c2=O)cc1C(C)(C)C` [I-234, 3-Pyrrolidin-1-yl-propane-1-sulfonic acid (4-{(E)-2-[3-tert-butyl-2-methoxy-5-(2-oxo-1,2-dihydro-pyridin-3-yl)-phenyl]-vinyl}-phenyl)-amide] yielded a half-inhibitory concentration (IC50) of 4 nM.

The compound `COc1c(/C=C/c2ccc(NS(=O)(=O)CCCN3CCCC3)cc2)cc(-c2ccc(C)[nH]c2=O)cc1C(C)(C)C` [I-235, 3-Pyrrolidin-1-yl-propane-1-sulfonic acid (4-{(E)-2-[3-tert-butyl-2-methoxy-5-(6-methyl-2-oxo-1,2-dihydro-pyridin-3-yl)-phenyl]-vinyl}-phenyl)-amide] had an IC50 of 12 nM.

The compound `COc1c(/C=C/c2ccc(NS(C)(=O)=O)cc2F)cc(-c2cc(F)c[nH]c2=O)cc1C(C)(C)C` [I-236, N-(4-{(E)-2-[3-tert-Butyl-5-(5-fluoro-2-oxo-1,2-dihydro-pyridin-3-yl)-2-methoxy-phenyl]-vinyl}-3-fluoro-phenyl)-methanesulfonamide] registered an IC50 of 1 nM.

With `COc1c(/C=C/c2ccccc2F)cc(-c2ccc[nH]c2=O)cc1C(C)(C)C` [I-237, 3-{3-tert-Butyl-5-[(E)-2-(2-fluoro-phenyl)-vinyl]-4-methoxy-phenyl}-1H-pyridin-2-one], the IC50 came to 13 nM.

Consider `COc1c(/C=C/c2ccccc2C#N)cc(-c2ccc[nH]c2=O)cc1C(C)(C)C` [I-238, 2-{(E)-2-[3-tert-Butyl-2-methoxy-5-(2-oxo-1,2-dihydro-pyridin-3-yl)-phenyl]-vinyl}-benzonitrile], for which the IC50 was found to be 2 nM.

The compound `COc1c(/C=C/c2ccccc2C(F)(F)F)cc(-c2ccc[nH]c2=O)cc1C(C)(C)C` [I-239, 3-{3-tert-Butyl-4-methoxy-5-[(E)-2-(2-trifluoromethyl-phenyl)-vinyl]-phenyl}-1H-pyridin-2-one] registered an IC50 of 8 nM.
